Results reported in patent US11969440B2, “Metal (hydr)oxide composite comprising poorly soluble drug, method for manufacturing same, and pharmaceutical composition comprising same” (priority 2020, dated 2024).
In brackets after ≈: the same amount, converted by molar mass.

What was measured:
[1] = cited from earlier work
[2] = single oral 40 mg/kg, MgO:HPMC compositions of Comparative Examples 2 to 4, FIG. 41 to 43

With `O=c1[nH]cc(F)c(=O)[nH]1` [Example 5-FU, 5-FU] as the molecule, how does the solubility in water [1] read?
The solubility in water was 12.2 mg/mL (≈ 93.8 mM).

And the “bioavailability of the compound as MgO composite versus the compound alone” value [2]?
The value was “not improved”.
